Key:
[1] = system: TNF-α release in human peripheral blood mononuclear cells (PBMC); test: TNF-α release; conditions: 18 h, read-out: TNF-α release assay, IC50
Description: Results are expressed as IC50 values (nM) calculated from inhibition curves using as positive controls the secretion in LPS stimulated wells and as negative controls the secretion in unstimulated cells.

[2] = Keratinocyte stability (KC) assay; format: in vitro ADME; conditions: pH 7.4; plated human keratinocytes, 1 μM compound, 37° C.; average of 2 to 4 tests; read-out: KC assay, half-life T½
Description: Incubations of test compounds in DMSO, diluted with growing medium, pH ˜7.4, at 1 μM were carried out with plated human keratinocytes. The percentage of organic solvent in the incubations was 0.5%. The incubations were performed at 37° C. with aliquots taken at 0, 60, 120, 240 and 1440 minutes, and reactions were terminated by addition of methanol containing analytical internal standard (IS). The results were expressed as half-life (T½) in minutes calculated from the rate constant (k) (min^−1) of test compound depletion.

[3] = Human whole blood (WB) assay; format: in vitro ADME; conditions: pH 7.4, 1 μM compound, 37° C., average of 2 to 4 tests, read-out: WB assay, half-life T½
Description: Incubations of test compounds in DMSO, diluted with phosphate buffer, pH 7.4, at 1 μM were carried out with human whole blood. The percentage of organic solvent in the incubations was 1%. The incubations were performed at 37° C. with aliquots taken at 0, 15, 30, 60 and 120 minutes, and reactions were terminated by addition of methanol containing analytical internal standard (IS). The results were expressed as half-life (T½) in minutes calculated from the rate constant (k) (min^−1) of test compound depletion.

| SMILES | IC50 [1] [nM] | half-life at 1 μM [2] [min] | half-life at 1 μM [3] [min] |
| --- | --- | --- | --- |
| COc1ccc(-c2ccc3c(c2)COC3=O)n2nc(C3(C(=O)OC(C)(C)C)CC3)nc12 [Compound 4, Tert-butyl 1-[8-methoxy-5-(1-oxo-3H-isobenzofuran-5-yl)-[1,2,4]triazolo[1,5-a]pyridin-2-yl]cyclopropanecarboxylate] | 15.3 | > 720 | < 11.2 |
| CC[C@H](C)OC(=O)C1(c2nc3c(OC)ccc(-c4ccc5c(c4)COC5=O)n3n2)CC1 [Compound 1, [(1S)-1-Methylpropyl]1-[8-methoxy-5-(1-oxo-3H-isobenzofuran-5-yl)-[1,2,4]triazolo-[1,5-a]pyridin-2-yl]cyclopropanecarboxylate] | 12.8 | > 720 | 10.7 |
| COc1ccc(-c2ccc3c(c2)COC3=O)n2nc(C3(C(=O)OCC(C)C)CC3)nc12 [Compound 3, [2-Methylpropyl]1-[8-methoxy-5-(1-oxo-3H-isobenzofuran-5-yl)-[1,2,4]triazolo[1,5-a]pyridin-2-yl]cyclopropanecarboxylate] | – | > 720 | 16.6 |
| CC[C@@H](C)OC(=O)C1(c2nc3c(OC)ccc(-c4ccc5c(c4)COC5=O)n3n2)CC1 [Compound 2, [(1R)-1-Methylpropyl]1-[8-methoxy-5-(1-oxo-3H-isobenzofuran-5-yl)-[1,2,4]triazolo-[1,5-a]pyridin-2-yl]cyclopropanecarboxylate] | 15.7 | > 720 | 12.6 |
